Broadly, the IC50 is the concentration that gives 50% inhibition.

The record followed here is patent US8318730B2, “Fused hetrocyclic compounds” (Synta Pharmaceuticals Corporation, priority 2003, dated 2012).

The first assay has as its system IL-12 production. The assay can be described thus: In vitro assay of Example 12: inhibition of IL-12 production in IFNγ/LPS- or IFNγ/SAC-stimulated cells, ELISA. Conditions: Homo sapiens; assay of Example 12; if more than one assay was performed, only the most active IC50 result is reported. Type of assay: cell-based, human. The text has this:
The biological activities of a compound can be evaluated by a number of cell-based assays. One of such assays can be conducted using cells from human peripheral blood mononuclear cells (PBMC) or human monocytic cell line (THP-1). The cells are stimulated with a combination of human interferon-γ (IFNγ) and lipopolysaccharide or a combination of IFNγ and Staphylococcus aureus Cowan I in the presence of a test compound. The level of inhibition of IL-12 production can be measured by determining the amount of p70 by using a sandwich ELISA assay with anti-human IL-12 antibodies. IC50 of the test compound can then be determined. Specifically, PBMC or THP-1 cells are incubated with the test compound. Cell viability was assessed using the bioreduction of MTS [3-(4,5-dimethylthiazol-2-yl)-5-(3-carboxymethoxyphenyl)-2-(4-sulfophenyl)-2H-tetrazolium] (Promega, Madison, Wis.).
Staphylococcus aureus Cowan I (SAC) is obtained from Calbiochem (La Jolla, Calif.), and lipopolysaccharide (LPS, Serratia marscencens) is obtained from Sigma (St. Louis, Mo.). Human and mouse recombinant IFNγ are purchased from Boehringer Mannheim (Mannheim, Germany) and Pharmingen (San Diego, Calif.), respectively.
Human PBMC are isolated by centrifugation using Ficoll-Paque (Pharmacia Biotech, Uppsala, Sweden) and prepared in RPMI medium supplemented with 10% fetal calf serum (FCS), 100 U/mL penicillin, and 100 μg/mL streptomycin. PBMC are plated in wells of a 96-well plate at a concentration of 5×10^5 cells/well, and primed by adding IFNγ (30 U/mL) for 22 h and stimulated by adding LPS (1 μg/mL), or by adding IFNγ (100 U/mL) and then stimulated by adding SAC (0.01%). A test quinazoline compound is dissolved in DMSO, and added to wells of the 96-well plate. The final DMSO concentration is adjusted to 0.25% in all cultures, including the compound-free control. Human THP-1 cells are plated in wells, primed by adding IFNγ (100 U/mL) for 22 h and stimulated by adding SAC (0.025%) in the presence of different concentrations of the quinazoline compound. Cell-free supernatants are taken 18 h later for measurement of cytokines. Cell viability is assessed using the bioreduction of MTS. Cell survival is estimated by determining the ratio of the absorbance in compound-treated groups versus compound-free control.
The supernatant is assayed for the amount of IL-12p40, IL-12p70, or IL-10 by using a sandwich ELISA with anti-human antibodies, i.e., a Human IL-12 p40 ELISA kit from R&D Systems (Berkeley, Calif.), and a Human IL-12 p70 or IL-10 ELISA kit from Endogen (Cambridge, Mass.). Assays are based on the manufacturer's instructions.
The biological activities of quinazoline compounds are tested on human PBMC or THP-1 cells.
Consider `COCCOc1nc(N2CCOCC2)c2cc(-c3cccc(C)c3)ccc2n1` [Compound 13, 2-(2-Methoxy-ethoxy)-4-morpholin-4-yl-6-m-tolyl-quinazoline], for which the IC50 turned out to be 1820 nM.
In the case of `c1ccc(Nc2ccc3nc(OCCN4CCOCC4)nc(N4CCOCC4)c3c2)cc1` [Compound 14, [4-Morpholin-4-yl-2-(2-morpholin-4-yl-ethoxy)-quinazolin-6-yl]-phenyl-amine], the IC50 amounted to 3000 nM.
Same read-out and setting: then `COc1ccc(CCOc2nc(N3CCOCC3)c3cc(-c4cccc(C)c4)ccc3n2)cc1OC` [Compound 15, 2-[2-(3,4-Dimethoxy-phenyl)-ethoxy]-4-morpholin-4-yl-6-m-tolyl-quinazoline], with 189 nM; and `Cc1cccc(-c2ccc3nc(OCCc4ccccn4)nc(N4CCOCC4)c3c2)c1` [Compound 16, 4-Morpholin-4-yl-2-(2-pyridin-2-yl-ethoxy)-6-m-tolyl-quinazoline], with 86 nM.
Still for that read-out and setting: then `Cc1cccc(-c2ccc3nc(OCCO)nc(N4CCOCC4)c3c2)c1` [Compound 18, 2-(4-Morpholin-4-yl-6-m-tolyl-quinazolin-2-yloxy)-ethanol], with 162 nM.
For `COc1ccc(CCOc2nc(N3CCOCC3)c3cc(-c4ccccc4)ccc3n2)cc1OC` [Compound 19, 2-[2-(3,4-Dimethoxy-phenyl)-ethoxy]-4-morpholin-4-yl-6-phenyl-quinazoline], the IC50 turned out to be 6910 nM.
As to `COc1ccc(CCOc2nc(N3CCOCC3)c3cc(-c4cccc(C(F)(F)F)c4)ccc3n2)cc1OC` [Compound 20, 2-[2-(3,4-Dimethoxy-phenyl)-ethoxy]-4-morpholin-4-yl-6-(3-trifluoromethyl-phenyl)-quinazoline], the IC50 amounted to 107 nM.
Turning to `COc1ccc(CCOc2nc(N3CCOCC3)c3cc(-c4ccc(C)cc4)ccc3n2)cc1OC` [Compound 21, 2-[2-(3,4-Dimethoxy-phenyl)-ethoxy]-4-morpholin-4-yl-6-p-tolyl-quinazoline], the IC50 was 59 nM.
Still for that read-out and setting: with `COc1ccc(CCOc2nc(N3CCOCC3)c3cc(-c4ccc(C)s4)ccc3n2)cc1OC` [Compound 22, 2-[2-(3,4-Dimethoxy-phenyl)-ethoxy]-6-(5-methyl-thiophen-2-yl)-4-morpholin-4-yl-quinazoline] the figure was 3040 nM; with `COc1ccc(CCOc2nc(N3CCOCC3)c3cc(-c4cccc(C#N)c4)ccc3n2)cc1OC` [Compound 23, 3-{2-[2-(3,4-Dimethoxy-phenyl)-ethoxy]-4-morpholin-4-yl-quinazolin-6-yl}-benzonitrile], above 10000 nM; with `COc1ccc(CCOc2nc(N3CCOCC3)c3cc(-c4cccc(C(N)=O)c4)ccc3n2)cc1OC` [Compound 24, 3-{2-[2-(3,4-Dimethoxy-phenyl)-ethoxy]-4-morpholin-4-yl-quinazolin-6-yl}-benzamide], 1430 nM.
Turning to `COc1cccc(-c2ccc3nc(OCCc4ccc(OC)c(OC)c4)nc(N4CCOCC4)c3c2)c1` [Compound 25, 2-[2-(3,4-Dimethoxy-phenyl)-ethoxy]-6-(3-methoxy-phenyl)-4-morpholin-4-yl-quinazoline], the IC50 worked out at 400 nM.
In the case of `COc1ccc(CCOc2nc(N3CCOCC3)c3cc(-c4ccc(C)c(C)c4)ccc3n2)cc1OC` [Compound 26, 2-[2-(3,4-Dimethoxy-phenyl)-ethoxy]-6-(3,4-dimethyl-phenyl)-4-morpholin-4-yl-quinazoline], the IC50 stood at 107 nM.
Regarding `COc1ccc(CCOc2nc(N3CCOCC3)c3cc(-c4cc(C)cc(C)c4)ccc3n2)cc1OC` [Compound 27, 2-[2-(3,4-Dimethoxy-phenyl)-ethoxy]-6-(3,5-dimethyl-phenyl)-4-morpholin-4-yl-quinazoline], the IC50 amounted to 470 nM.
On the same count and under the same terms, with `COc1ccc(CCOc2nc(N3CCOCC3)c3cc(-c4cc5ccccc5o4)ccc3n2)cc1OC` [Compound 28, 6-Benzofuran-2-yl-2-[2-(3,4-dimethoxy-phenyl)-ethoxy]-4-morpholin-4-yl-quinazoline] the figure was 64 nM; with `COc1ccc(CCOc2nc(N3CCOCC3)c3cc(-c4ccc(Cl)cc4)ccc3n2)cc1OC` [Compound 30, 6-(4-Chloro-phenyl)-2-[2-(3,4-dimethoxy-phenyl)-ethoxy]-4-morpholin-4-yl-quinazoline], above 1000 nM.
Regarding `COc1ccc(-c2ccc3nc(OCCc4ccc(OC)c(OC)c4)nc(N4CCOCC4)c3c2)cc1` [Compound 31, 2-[2-(3,4-Dimethoxy-phenyl)-ethoxy]-6-(4-methoxy-phenyl)-4-morpholin-4-yl-quinazoline], the IC50 was found to be 419 nM.
Turning to `COc1ccc(CCOc2nc(N3CCOCC3)c3cc(-c4ccc(C(F)(F)F)cc4)ccc3n2)cc1OC` [Compound 32, 2-[2-(3,4-Dimethoxy-phenyl)-ethoxy]-4-morpholin-4-yl-6-(4-trifluoromethyl-phenyl)-quinazoline], the IC50 was 3000 nM.
`COc1ccc(CCOc2nc(N3CCOCC3)c3cc(-c4ccc(F)cc4)ccc3n2)cc1OC` [Compound 33, 6-(4-Fluoro-phenyl)-2-[2-(3,4-dimethoxy-phenyl)-ethoxy]-4-morpholin-4-yl-quinazoline]: the IC50 was above 10000 nM.
For the compound `COc1ccc(CCOc2nc(N3CCOCC3)c3cc(Oc4ccccc4Cl)ccc3n2)cc1OC` [Compound 34, 6-(2-Chloro-phenoxy)-2-[2-(3,4-dimethoxy-phenyl)-ethoxy]-4-morpholin-4-yl-quinazoline], the IC50 was determined as 347 nM.

The assay is the same for the next values; noted with them: assay of Example 12; if more than one assay was performed, only the most active IC50 result is reported.
With “2-Methyl-1-(4-morpholin-4-yl-6-m-tolyl-quinazolin-2-yloxy)-propan-2-ol [Compound 17]”, the IC50 amounted to 370 nM.

The same assay, now with this note: measured in an assay according to Example 12; human PBMC or THP-1 cells.
As for `COc1cc2nc(N3CCOCC3)nc(NN=Cc3cccc(C)c3)c2cc1OC` [Compound 1, N-(6,7-Dimethoxy-2-morpholin-4-yl-quinazolin-4-yl)-N′-(3-methyl-benzylidene)-hydrazine], the IC50 came out at 98.8 nM.
Regarding `COc1cc2nc(N3CCOCC3)nc(Nc3ccc4[nH]c(C)c(C)c4c3)c2cc1OC` [Compound 2, (6,7-Dimethoxy-2-morpholin-4-yl-quinazolin-4-yl)-(2,3-dimethyl-1H-indol-5-yl)-amine], the IC50 came out at 109 nM.
For `COc1cc2nc(N3CCOCC3)nc(NC(=O)Nc3cccc(C)c3)c2cc1OC` [Compound 6, 1-(6,7-dimethoxy-2-morpholin-4-yl-quinazolin-4-yl)-3-m-tolyl-urea], the IC50 was determined as 60.5 nM.
Regarding `Cc1cccc(/C=N/Nc2nc(N3CCOCC3)nc3cc(Cl)ccc23)c1` [Compound 8, N-(7-Chloro-2-morpholin-4-yl-quinazolin-4-yl)-N′-(3-methyl-benzylidene)-hydrazine], the IC50 was determined as 298 nM.
As for `COc1cc2nc(N3CCOCC3)nc(N/N=C/c3cccc(C)c3)c2cc1OCCOc1ccccc1` [Compound 9, N-[7-Methoxy-2-morpholin-4-yl-6-(2-phenoxy-ethoxy)-quinazolin-4-yl]-N′-(3-methyl-benzylidene)-hydrazine], the IC50 came to 800 nM.
The same measure, in the same setting: then `Cc1[nH]c2ccc(Nc3nc(N4CCOCC4)nc4ccc([N+](=O)[O-])cc34)cc2c1C` [Compound 10, (2,3-Dimethyl-1H-indol-5-yl)-(2-morpholin-4-yl-6-nitro-quinazolin-4-yl)-amine], with 5000 nM; and `COc1cc2nc(N3CCOCC3)nc(Nc3cccc(C)c3)c2cc1OC` [Compound 11, (6,7-Dimethoxy-2-morpholin-4-yl-quinazolin-4-yl)-m-tolyl-amine], with 10000 nM.
